Measurements reported in ChEMBL document CHEMBL3526000 (Drug Metab Dispos, 2012).

Key:
[1] = biological target: T1, UDP-glucuronosyltransferase 1A10 (Homo sapiens, UniProt Q9HAW8); assay: Drug metabolism assessed as recombinant human UGT1A10 assessed as O-glucuronidation at 100 uM incubated for 60 mins by LC-MS/MS analysis; assay type: ADME; conditions: recombinant enzyme, 1 h
T1 sequence (Q9HAW8 whole entry): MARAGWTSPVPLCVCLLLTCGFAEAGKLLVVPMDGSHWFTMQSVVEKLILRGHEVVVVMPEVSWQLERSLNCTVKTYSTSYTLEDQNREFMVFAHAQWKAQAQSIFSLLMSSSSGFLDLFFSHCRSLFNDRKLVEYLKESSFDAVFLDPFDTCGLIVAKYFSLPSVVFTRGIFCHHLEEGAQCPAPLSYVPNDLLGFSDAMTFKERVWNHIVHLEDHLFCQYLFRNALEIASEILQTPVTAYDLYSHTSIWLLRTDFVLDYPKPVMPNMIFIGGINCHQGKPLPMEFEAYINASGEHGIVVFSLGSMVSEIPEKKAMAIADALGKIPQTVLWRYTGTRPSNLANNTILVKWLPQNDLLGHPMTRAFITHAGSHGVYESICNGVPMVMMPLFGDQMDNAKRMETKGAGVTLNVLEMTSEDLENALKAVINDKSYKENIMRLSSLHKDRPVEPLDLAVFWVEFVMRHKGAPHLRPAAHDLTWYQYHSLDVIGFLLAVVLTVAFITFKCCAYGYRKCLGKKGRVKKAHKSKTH

[2] = biological target: T2, UDP-glucuronosyltransferase 2B17 (Homo sapiens, UniProt O75795); assay: Drug metabolism assessed as recombinant human UGT2B17 assessed as O-glucuronidation at 100 uM incubated for 60 mins by LC-MS/MS analysis; assay type: ADME; conditions: recombinant enzyme, 1 h
T2 sequence (O75795 whole entry): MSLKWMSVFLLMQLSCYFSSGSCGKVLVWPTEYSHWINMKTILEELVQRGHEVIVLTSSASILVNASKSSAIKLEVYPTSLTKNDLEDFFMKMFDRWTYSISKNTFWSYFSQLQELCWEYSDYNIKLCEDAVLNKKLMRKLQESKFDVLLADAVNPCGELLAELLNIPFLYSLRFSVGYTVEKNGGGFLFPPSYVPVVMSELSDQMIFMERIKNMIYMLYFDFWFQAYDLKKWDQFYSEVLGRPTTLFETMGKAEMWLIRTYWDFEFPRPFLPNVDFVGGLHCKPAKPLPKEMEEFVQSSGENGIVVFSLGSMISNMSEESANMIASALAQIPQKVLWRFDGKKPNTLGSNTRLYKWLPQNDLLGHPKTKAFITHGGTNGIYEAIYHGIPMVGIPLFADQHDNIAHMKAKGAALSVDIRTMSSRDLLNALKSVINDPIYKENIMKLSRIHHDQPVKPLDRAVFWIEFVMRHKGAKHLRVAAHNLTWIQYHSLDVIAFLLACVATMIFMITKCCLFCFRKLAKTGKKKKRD

[3] = biological target: T3, UDP-glucuronosyltransferase 1A6 (Homo sapiens, UniProt P19224); assay: Drug metabolism assessed as recombinant human UGT1A6 assessed as N-glucuronidation at 100 uM incubated for 60 mins by LC-MS/MS analysis; assay type: ADME; conditions: recombinant enzyme, 1 h
T3 sequence (P19224 whole entry): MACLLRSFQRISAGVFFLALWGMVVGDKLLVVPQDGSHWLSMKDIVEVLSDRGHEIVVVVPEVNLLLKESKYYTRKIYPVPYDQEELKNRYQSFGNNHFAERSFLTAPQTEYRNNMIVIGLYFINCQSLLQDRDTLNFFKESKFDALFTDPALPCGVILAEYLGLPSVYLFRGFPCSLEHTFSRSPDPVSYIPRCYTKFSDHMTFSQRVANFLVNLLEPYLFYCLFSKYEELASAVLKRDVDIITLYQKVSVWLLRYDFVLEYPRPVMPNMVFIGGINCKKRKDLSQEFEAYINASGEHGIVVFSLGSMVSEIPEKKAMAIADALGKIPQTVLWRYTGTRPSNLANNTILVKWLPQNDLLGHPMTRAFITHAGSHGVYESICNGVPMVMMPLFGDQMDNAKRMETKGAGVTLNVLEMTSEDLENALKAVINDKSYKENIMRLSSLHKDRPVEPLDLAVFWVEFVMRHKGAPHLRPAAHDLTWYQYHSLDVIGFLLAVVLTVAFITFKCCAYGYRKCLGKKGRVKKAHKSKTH

[4] = biological target: T1, UDP-glucuronosyltransferase 1A10; assay: Drug metabolism assessed as recombinant human UGT1A10 assessed as N-glucuronidation at 100 uM incubated for 60 mins by LC-MS/MS analysis; assay type: ADME; conditions: recombinant enzyme, 1 h
[5] = biological target: T4, UDP-glucuronosyltransferase 2B4 (Homo sapiens, UniProt P06133); assay: Drug metabolism assessed as recombinant human UGT2B4 assessed as N-glucuronidation at 100 uM incubated for 60 mins by LC-MS/MS analysis; assay type: ADME; conditions: recombinant enzyme, 1 h
T4 sequence (P06133 whole entry): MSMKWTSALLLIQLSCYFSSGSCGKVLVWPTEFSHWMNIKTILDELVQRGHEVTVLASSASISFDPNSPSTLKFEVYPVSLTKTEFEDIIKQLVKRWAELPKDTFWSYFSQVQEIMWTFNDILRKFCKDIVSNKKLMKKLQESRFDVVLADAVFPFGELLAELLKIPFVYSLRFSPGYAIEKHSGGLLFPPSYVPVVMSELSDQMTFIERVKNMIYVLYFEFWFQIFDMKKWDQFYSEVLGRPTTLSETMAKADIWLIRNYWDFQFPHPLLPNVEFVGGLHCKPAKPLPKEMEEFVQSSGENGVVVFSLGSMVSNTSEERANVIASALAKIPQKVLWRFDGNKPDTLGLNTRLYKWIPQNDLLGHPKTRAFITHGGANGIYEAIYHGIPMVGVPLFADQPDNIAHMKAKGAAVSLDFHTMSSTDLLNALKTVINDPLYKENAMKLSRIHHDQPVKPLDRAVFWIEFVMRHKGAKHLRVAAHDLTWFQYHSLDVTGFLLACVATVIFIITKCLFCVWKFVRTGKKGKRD

[6] = biological target: T5, UDP-glucuronosyltransferase 1A9 (Homo sapiens, UniProt O60656); assay: Drug metabolism assessed as recombinant human UGT1A9 assessed as O-glucuronidation measured as inhibition constant at 10 to 400 uM incubated for 60 mins by LC-MS/MS analysis
T5 sequence (O60656 whole entry): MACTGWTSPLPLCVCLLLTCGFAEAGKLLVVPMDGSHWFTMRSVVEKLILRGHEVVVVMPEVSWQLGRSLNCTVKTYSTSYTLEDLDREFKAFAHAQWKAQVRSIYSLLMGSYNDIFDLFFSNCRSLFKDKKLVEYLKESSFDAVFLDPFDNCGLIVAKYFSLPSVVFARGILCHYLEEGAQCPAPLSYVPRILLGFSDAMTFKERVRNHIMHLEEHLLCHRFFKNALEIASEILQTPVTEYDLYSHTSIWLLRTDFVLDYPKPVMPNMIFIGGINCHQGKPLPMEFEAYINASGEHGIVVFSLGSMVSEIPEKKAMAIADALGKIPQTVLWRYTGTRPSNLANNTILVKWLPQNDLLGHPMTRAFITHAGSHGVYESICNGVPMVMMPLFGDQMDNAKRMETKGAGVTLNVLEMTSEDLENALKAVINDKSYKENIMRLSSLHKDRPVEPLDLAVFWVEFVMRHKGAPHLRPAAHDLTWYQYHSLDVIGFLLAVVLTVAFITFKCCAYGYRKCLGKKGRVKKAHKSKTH

O=C(CCCN1CCC(O)(c2ccc(Cl)cc2)CC1)c1ccc(F)cc1 [HALOPERIDOL]
344 µM: Ki [6]
metabolite_not_detected: Drug metabolism [1] | Drug metabolism [2] | Drug metabolism [3] | Drug metabolism [4] | Drug metabolism [5]
